These results are taken from patent publication US20230146455A1, “TREATMENT OF INFLAMMATORY DISEASES WITH PEPTIDES AND PHARMACEUTICAL COMPOSITIONS” (Yuyu Pharma, Inc., priority 2020, published 2023).

In data set [1] the test system is CIA-induced Rheumatoid Arthritis. The data set can be described thus: Mouse CIA-induced Rheumatoid Arthritis Model: body weight, hind paw thickness, clinical score (Example 13). It is filed as in vivo. The settings on record: CII-injected mice. From the text:
Clinical score: 0—no change; 1—swelling and erythema of the digit; 2—mild swelling and erythema of the limb; 3—gross swelling and erythema of the digit; 4—gross deformity and inability to use the limb.

The test system of data set [2] is IL-6 cytokine release in poly I:C stimulated primary human corneal epithelial cells. The data set is described as follows: Soluble IL-6 cytokine release in poly I:C stimulated primary human corneal epithelial cells by ELISA (Example 2). It is filed as cell-based. The settings on record: 30, 10, 1, 0.1, 0.01, 0.001 μM, 25 μg/mL poly I:C, 24 hours. How it is done: Assay protocol as shown below was used to determine the significant effect of test compounds. The data was statistically analyzed by one-way ANOVA with a Bonferroni post test comparing all the columns. The significance was represented by the p value.
Selected YDE peptides (YDE-093, -096, -100, -101, -102, -103, -104, -105, -106 and -107) were evaluated by assessing the soluble IL-6 cytokine release in poly I:C stimulated primary human corneal epithelial cells by ELISA (Biolegend, 430504).
Specifically, primary corneal epithelial cells (ATCC, ATCC PCS-700-010) were seeded on a 6-well culture plate containing the Corneal Epithelial Cell Basal Medium (ATCC, ATCC PCS-700-030) in the Corneal Epithelial Cell Growth Kit (ATCC, ATCC PCS-700-040) in an amount of 1.2×10^5 cells per well, which was then cultured for 24 hours under the conditions of 37° C. and 5% CO2. Then, cells were washed with 1×PBS and replaced with serum free medium which was then cultured for 2 hours under the conditions of 37° C. and 5% CO2.
After 2 hours, cells were treated with compounds at 6 differential concentrations (Hinokitiol/YDE peptides at 30, 10, 1, 0.1, 0.01, and 0.001 μM) with the DMSO final 0.5% and then cultured for 1 hour under the conditions of 37° C. and 5% CO2.
After 1 hour, cells were further treated with 25 μg/mL of poly I:C and cultured for 24 hours under the conditions of 37° C. and 5% CO2.
Following incubation, the supernatant was collected for IL-6 levels was assessed by Sandwich ELISA (Enzyme-linked immunosorbent assay) following manufacturer's instructions. The data was statistically analyzed by one-way ANOVA with a Bonferroni post-test comparing all the columns. The significance was represented by the p value.
On the technique in general: In an ELISA, binding on a coated surface is turned into a signal by an enzyme label.

For data set [3], the system named is IL-1beta, IL-6, IL-8, MIP-1alpha, MIP-1beta, RANTES, and TNF-alpha release in poly I:C stimulated primary human corneal epithelial cells. The data set can be described thus: Panel of soluble proteins release in poly I:C stimulated primary human corneal epithelial cells by Multiplex (Example 4). It is filed as cell-based. To be noted: for IL-6, MFI Mean±SD: Stimulated 14801±407, p<0.05. The text has this: To determine the effect of compound by assessing the panel of soluble proteins release in poly I:C stimulated primary human corneal epithelial cells by Multiplex. • Test System: Primary Human Corneal Epithelial cells • Assay Format: 96-well plate format • Method of Detection: Enzyme-linked immunosorbent assay • Assay Controls: Hinokitiol Assay protocol as described below was used to determine the significant effect of test compounds. The data was statistically analyzed by one-way ANOVA with a Bonferroni post test comparing all the columns. The significance was represented by the p value.

The subject of data set [4] is NF-kB (p65). The data set can be described thus: NF-kB (p65) transcription activity in poly I:C stimulated primary human corneal epithelial cells (Example 5). The data set is classed as cell-based. The text has this: To determine the effect of YDE053 on NF-kB (p65) transcription activity in poly I:C stimulated primary human corneal epithelial cells. Study Plan • Test System: Primary Human Corneal Epithelial cells • Assay Format: 96-well plate format • Method of Detection: Enzyme-linked immunosorbent assay • Assay Controls: Hinokitiol Assay protocol as shown below was used to determine the significant effect of test compounds. The data was statistically analyzed by one-way ANOVA with a Bonferroni post test comparing all the columns. The significance was represented by the p value.

In data set [5] the test system is IL-6 cytokine release in poly I:C stimulated primary human corneal epithelial cells. The data set is described as follows: Soluble IL-6 cytokine release in poly I:C stimulated primary human corneal epithelial cells by ELISA (Example 6). It is filed as cell-based. From the text:
To determine the effect of compound by assessing the soluble IL-6 cytokine release in poly I:C stimulated primary human corneal epithelial cells by ELISA. • Test System: Primary Human Corneal Epithelial cells • Assay Format: 96-well plate format • Method of Detection: Enzyme-linked immunosorbent assay • Assay Controls: Hinokitiol Assay protocol as shown below was used to determine the significant effect of test compounds. The data was statistically analyzed by one-way ANOVA with a Bonferroni post test comparing all the columns. The significance was represented by the p value.

Take `C[C@@H]1C[C@H]2[C@@H]3CCC4=CC(=O)C=C[C@]4(C)[C@@]3(F)[C@@H](O)C[C@]2(C)[C@@]1(O)C(=O)CO` [dexamethasone]: the “body weight (in words)” value in data set [1] is “lead to a decease in body weight in mice”.

Take `CC(C)c1cccc(=O)c(O)c1` [Hinokitiol]: the “Poly I:C induced IL-6 cytokine release (in words)” value in data set [2] and in data set [5] was “significantly attenuate the Poly I:C stimulated IL-6 cytokine release in a dose dependent manner” each time. In data set [3] (Multiplex), the “Poly I:C stimulated cytokines release (IL-1beta, IL-6, IL-8, MIP-1alpha, MIP-1beta, RANTES, and TNF-alpha) (in words)” value is on record as “significantly attenuate the Poly I:C stimulated cytokines release”. The results for the “IL-6, MFI Mean±SD” value in data set [3] (Stimulated + 1 μM), in data set [3] (Stimulated + 10 μM) and in data set [3] (Stimulated + 30 μM) were 7004±376, 7011±471 and 6759±500, respectively. The “phosphorylation of (p65) NF-kB in Poly I:C stimulated cells (in words)” value in data set [4] is “significantly attenuate the phosphorylation of (p65) NF-kB in Poly I:C stimulated cells in a dose dependent manner”.
